# Reference: US8318186B2, “Use of at least a fatty ester for preparing a composition designed to inhibit 5-α-reductase activity, in pharmacology, in particular dermatology, in cosmetics and as food additive” (Laboratoires Expanscience, priority 2000, dated 2012)
# Several values for one entry are separate records, joined by “and”; a condition that tells them apart may be missing. Identical values can stand only once. Marks after values point to notes of the source that are not given here.
# Tested on: 5α-reductase
# Test: Fatty acid esters on 5α-reductase activity, conversion of testosterone to 5α-dihydrotestosterone in normal human dermal fibroblast cultures (Example 4)
# Type: cell-based
# Design: key to group by 5α-reductase inhibitory activity: group A with the highest inhibitory activity; group B with an intermediate inhibitory activity
# Conditions: for inhibition of the 5α-reductase activity: Example 4, p<0.05; for 5α-DHT formed per culture well, mean / 5α-DHT formed per culture well, single well: after 24 of incubation, DMSO 0.1% (v/v); for 5α-DHT formed per culture well, single well: single replicate; for group by 5α-reductase inhibitory activity: tested at 1, 10 and 100 μg/ml
# Description: The fibroblast culture medium (FCM) consisted of MEM/M199 (3:1, v/v) supplemented with penicillin (50 IU/ml), streptomycin (50 μg/ml), sodium bicarbonate (0.2%, w/v) and FCS (10%, v/v).
# The assay system consisted of normal human dermal fibroblasts cultured as a monolayer. The fibroblasts were isolated from a residue from abdominal plastic surgery performed on a person (subject BIOPREDIC No. I0013). The cells were used at the fifth passage; they were cultured until the monolayers were confluent in FCM medium at 37° C. in a humid atmosphere containing 5% CO2.
# The fibroblast incubation medium (FIM) consisted of FCM supplemented with tritiated testosterone (1.6×10^−7 M, that is 6.32 μCi/ml) and nonradiolabeled testosterone (3.84×10^−6 M)
# The test products and finasteride were taken up in DMSO before being diluted in the incubation medium. […]
# The fibroblast cultures were preincubated in the presence of the test products or of the reference product for 2 hours before adding the substrate, testosterone. For this step, the test products and the reference product were prepared in the FCM medium.
# After preincubation, the fibroblast cultures were incubated in the presence of the test products or of the reference product prepared in the FIM medium for 22 hours at 37° C. in a humid atmosphere containing 5% CO2. Control cultures were incubated in the FIM medium in the absence of test products and of reference product. […]
# Each experimental condition was tested in triplicate.
# After the incubation period, the cells were subjected to the action of ultrasound in the FIM medium. The cellular lysates thus obtained were extracted with dichloromethane. After evaporation, the dry residues were taken up in methanol and were deposited on 60F254 silica plates (MERCK, reference 5554).
# The migration solvent was a mixture of dichloromethane and ether (7:3, v/v) At the end of the migration, the silica plates were read using a BERTHOLD radioactivity scanner.
# The metabolizing of testosterone to 5α-dihydro-testosterone under the various experimental conditions was calculated: the results (areas of the 5α-dihydrotestosterone peaks counted by the BERTHOLD scanner) were expressed in pmol of 5α-dihydro-testosterone formed per culture well. They were also expressed as a percentage of the 5α-reductase activity present in the “DMSO control” group.
# The groups of data (control group and treated groups) were treated by a one-way analysis of variance (ANOVA 1, p<0.05), followed by a DUNNETT's test (p<0.05). The effect of the test products and of the reference product was compared with the “DMSO control” group. The effects of the test products were compared to each other by a two-way analysis of variance (ANOVA 2, p<0.05, factor 1=concentration and factor 2=treatment).
# The same materials and methods are used as in example 3 above.
# It was proposed to evaluate the effect of fatty acid esters on the 5α-reductase activity. An in vitro model of normal human dermal fibroblast cultures was selected. The products tested were chosen from the group of fatty acid esters varying in the length and the functionality of the fatty chain, and the nature of the alkoxy group. These esters are the following: methyl oleate, methyl linoleate, methyl stearate, methyl laurate, methyl undecylenate, butyl oleate, oleyl oleate and methyl ricinoleate.
smiles,measurement,setting,value
"CCCCCCCC/C=C\CCCCCCCC(=O)OCCCC [Butyl oleate, butyl oleate]",5α-reductase activity as percentage of the “DMSO 0.1% (v/v)” group,1 μg/ml,79 percentage of the “DMSO 0.1% (v/v)” group
same,inhibition of the 5α-reductase activity,1 μg/ml,21%
same,"5α-DHT formed per culture well, mean",1 μg/ml,9.00* +/− pmol of 5α-DHT formed/culture well
same,"5α-DHT formed per culture well, single well",1 μg/ml,10.64 pmol of 5α-DHT formed/culture well and 8.28 pmol of 5α-DHT formed/culture well and 8.08 pmol of 5α-DHT formed/culture well
same,5α-reductase activity as percentage of the “DMSO 0.1% (v/v)” group,10 μg/ml,55 percentage of the “DMSO 0.1% (v/v)” group
same,inhibition of the 5α-reductase activity,10 μg/ml,45%
same,"5α-DHT formed per culture well, mean",10 μg/ml,6.21* +/− pmol of 5α-DHT formed/culture well
same,"5α-DHT formed per culture well, single well",10 μg/ml,6.24 pmol of 5α-DHT formed/culture well and 5.04 pmol of 5α-DHT formed/culture well and 7.36 pmol of 5α-DHT formed/culture well
same,5α-reductase activity as percentage of the “DMSO 0.1% (v/v)” group,100 μg/ml,51 percentage of the “DMSO 0.1% (v/v)” group
same,inhibition of the 5α-reductase activity,100 μg/ml,49%
same,"5α-DHT formed per culture well, mean",100 μg/ml,5.77* +/− pmol of 5α-DHT formed/culture well
same,"5α-DHT formed per culture well, single well",100 μg/ml,5.20 pmol of 5α-DHT formed/culture well and 6.72 pmol of 5α-DHT formed/culture well and 5.40 pmol of 5α-DHT formed/culture well
same,group by 5α-reductase inhibitory activity,,A
"CCCCCCCCCCCC(=O)OC [Methyl laurate, methyl laurate]",5α-reductase activity as percentage of the “DMSO 0.1% (v/v)” group,1 μg/ml,57 percentage of the “DMSO 0.1% (v/v)” group
same,"5α-DHT formed per culture well, mean",1 μg/ml,6.49* +/− pmol of 5α-DHT formed/culture well
same,"5α-DHT formed per culture well, single well",1 μg/ml,5.76 pmol of 5α-DHT formed/culture well and 6.88 pmol of 5α-DHT formed/culture well and 6.84 pmol of 5α-DHT formed/culture well
same,5α-reductase activity as percentage of the “DMSO 0.1% (v/v)” group,10 μg/ml,77 percentage of the “DMSO 0.1% (v/v)” group
same,"5α-DHT formed per culture well, mean",10 μg/ml,8.75 pmol of 5α-DHT formed/culture well
same,"5α-DHT formed per culture well, single well",10 μg/ml,6.84 pmol of 5α-DHT formed/culture well and 9.88 pmol of 5α-DHT formed/culture well and 9.52 pmol of 5α-DHT formed/culture well
same,5α-reductase activity as percentage of the “DMSO 0.1% (v/v)” group,100 μg/ml,86 percentage of the “DMSO 0.1% (v/v)” group
same,"5α-DHT formed per culture well, mean",100 μg/ml,9.80 pmol of 5α-DHT formed/culture well
same,"5α-DHT formed per culture well, single well",100 μg/ml,8.48 pmol of 5α-DHT formed/culture well and 11.96 pmol of 5α-DHT formed/culture well and 8.96 pmol of 5α-DHT formed/culture well
same,group by 5α-reductase inhibitory activity,,B
"CCCCC/C=C\C/C=C\CCCCCCCC(=O)OC [Methyl linoleate, methyl linoleate]",5α-reductase activity as percentage of the “DMSO 0.1% (v/v)” group,1 μg/ml,58 percentage of the “DMSO 0.1% (v/v)” group
same,inhibition of the 5α-reductase activity,1 μg/ml,42%
same,"5α-DHT formed per culture well, mean",1 μg/ml,6.60* +/− pmol of 5α-DHT formed/culture well
same,"5α-DHT formed per culture well, single well",1 μg/ml,7.04 pmol of 5α-DHT formed/culture well and 6.40 pmol of 5α-DHT formed/culture well and 6.36 pmol of 5α-DHT formed/culture well
same,5α-reductase activity as percentage of the “DMSO 0.1% (v/v)” group,10 μg/ml,60 percentage of the “DMSO 0.1% (v/v)” group
same,inhibition of the 5α-reductase activity,10 μg/ml,40%
same,"5α-DHT formed per culture well, mean",10 μg/ml,6.87* +/− pmol of 5α-DHT formed/culture well
same,"5α-DHT formed per culture well, single well",10 μg/ml,6.00 pmol of 5α-DHT formed/culture well and 6.60 pmol of 5α-DHT formed/culture well and 8.00 pmol of 5α-DHT formed/culture well
same,5α-reductase activity as percentage of the “DMSO 0.1% (v/v)” group,100 μg/ml,71 percentage of the “DMSO 0.1% (v/v)” group
same,inhibition of the 5α-reductase activity,100 μg/ml,29%
same,"5α-DHT formed per culture well, mean",100 μg/ml,8.05* +/− pmol of 5α-DHT formed/culture well
same,"5α-DHT formed per culture well, single well",100 μg/ml,8.56 pmol of 5α-DHT formed/culture well and 8.04 pmol of 5α-DHT formed/culture well and 7.56 pmol of 5α-DHT formed/culture well
same,group by 5α-reductase inhibitory activity,,B
"CCCCCC[C@@H](O)C/C=C\CCCCCCCC(=O)OC [Methyl ricinoleate, methyl ricinoleate]",5α-reductase activity as percentage of the “DMSO 0.1% (v/v)” group,1 μg/ml,63 percentage of the “DMSO 0.1% (v/v)” group
same,inhibition of the 5α-reductase activity,1 μg/ml,37%
same,"5α-DHT formed per culture well, mean",1 μg/ml,7.19* +/− pmol of 5α-DHT formed/culture well
same,"5α-DHT formed per culture well, single well",1 μg/ml,6.52 pmol of 5α-DHT formed/culture well and 8.36 pmol of 5α-DHT formed/culture well and 6.68 pmol of 5α-DHT formed/culture well
same,5α-reductase activity as percentage of the “DMSO 0.1% (v/v)” group,10 μg/ml,62 percentage of the “DMSO 0.1% (v/v)” group
same,inhibition of the 5α-reductase activity,10 μg/ml,38%
same,"5α-DHT formed per culture well, mean",10 μg/ml,7.04* +/− pmol of 5α-DHT formed/culture well
same,"5α-DHT formed per culture well, single well",10 μg/ml,7.84 pmol of 5α-DHT formed/culture well and 7.40 pmol of 5α-DHT formed/culture well and 5.88 pmol of 5α-DHT formed/culture well
same,5α-reductase activity as percentage of the “DMSO 0.1% (v/v)” group,100 μg/ml,38 percentage of the “DMSO 0.1% (v/v)” group
same,inhibition of the 5α-reductase activity,100 μg/ml,62%
same,"5α-DHT formed per culture well, mean",100 μg/ml,4.33* +/− pmol of 5α-DHT formed/culture well
same,"5α-DHT formed per culture well, single well",100 μg/ml,3.68 pmol of 5α-DHT formed/culture well and 4.52 pmol of 5α-DHT formed/culture well and 4.80 pmol of 5α-DHT formed/culture well
same,group by 5α-reductase inhibitory activity,,A
"CCCCCCCCCCCCCCCCCC(=O)OC [Methyl stearate, methyl stearate]",5α-reductase activity as percentage of the “DMSO 0.1% (v/v)” group,1 μg/ml,59 percentage of the “DMSO 0.1% (v/v)” group
same,inhibition of the 5α-reductase activity,1 μg/ml,41%
same,"5α-DHT formed per culture well, mean",1 μg/ml,6.69* +/− pmol of 5α-DHT formed/culture well
same,"5α-DHT formed per culture well, single well",1 μg/ml,6.92 pmol of 5α-DHT formed/culture well and 6.08 pmol of 5α-DHT formed/culture well and 7.08 pmol of 5α-DHT formed/culture well
same,5α-reductase activity as percentage of the “DMSO 0.1% (v/v)” group,10 μg/ml,65 percentage of the “DMSO 0.1% (v/v)” group
same,inhibition of the 5α-reductase activity,10 μg/ml,35%
same,"5α-DHT formed per culture well, mean",10 μg/ml,7.43* +/− pmol of 5α-DHT formed/culture well
same,"5α-DHT formed per culture well, single well",10 μg/ml,8.80 pmol of 5α-DHT formed/culture well and 6.72 pmol of 5α-DHT formed/culture well and 6.76 pmol of 5α-DHT formed/culture well
same,5α-reductase activity as percentage of the “DMSO 0.1% (v/v)” group,100 μg/ml,57 percentage of the “DMSO 0.1% (v/v)” group
same,inhibition of the 5α-reductase activity,100 μg/ml,43%
same,"5α-DHT formed per culture well, mean",100 μg/ml,6.52* +/− pmol of 5α-DHT formed/culture well
same,"5α-DHT formed per culture well, single well",100 μg/ml,6.88 pmol of 5α-DHT formed/culture well and 5.92 pmol of 5α-DHT formed/culture well and 6.76 pmol of 5α-DHT formed/culture well
same,group by 5α-reductase inhibitory activity,,B
"C=CCCCCCCCCC(=O)OC [Methyl undecylenate, methyl undecylenate]",5α-reductase activity as percentage of the “DMSO 0.1% (v/v)” group,1 μg/ml,60 percentage of the “DMSO 0.1% (v/v)” group
same,inhibition of the 5α-reductase activity,1 μg/ml,40%
same,"5α-DHT formed per culture well, mean",1 μg/ml,6.89* +/− pmol of 5α-DHT formed/culture well
same,"5α-DHT formed per culture well, single well",1 μg/ml,6.56 pmol of 5α-DHT formed/culture well and 7.44 pmol of 5α-DHT formed/culture well and 6.68 pmol of 5α-DHT formed/culture well
same,5α-reductase activity as percentage of the “DMSO 0.1% (v/v)” group,10 μg/ml,68 percentage of the “DMSO 0.1% (v/v)” group
same,inhibition of the 5α-reductase activity,10 μg/ml,32%
same,"5α-DHT formed per culture well, mean",10 μg/ml,7.71* +/− pmol of 5α-DHT formed/culture well
same,"5α-DHT formed per culture well, single well",10 μg/ml,7.68 pmol of 5α-DHT formed/culture well and 7.84 pmol of 5α-DHT formed/culture well and 7.60 pmol of 5α-DHT formed/culture well
same,5α-reductase activity as percentage of the “DMSO 0.1% (v/v)” group,100 μg/ml,74 percentage of the “DMSO 0.1% (v/v)” group
same,inhibition of the 5α-reductase activity,100 μg/ml,26%
same,"5α-DHT formed per culture well, mean",100 μg/ml,8.48* +/− pmol of 5α-DHT formed/culture well
same,"5α-DHT formed per culture well, single well",100 μg/ml,8.68 pmol of 5α-DHT formed/culture well and 7.76 pmol of 5α-DHT formed/culture well and 9.00 pmol of 5α-DHT formed/culture well
same,group by 5α-reductase inhibitory activity,,B
